From ChEMBL document CHEMBL1201862, “PubChem BioAssay data set” (2004)
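Interpolation was linear, between the two tested concentrations surrounding the appropriate level; five concentrations were tested over 48 hours in 96-well plates. GI50 is the concentration that inhibits growth by half.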 Calls of active or inactive are those of the source. No stated cut-off is given here; in the data, active = GI50 up to about 1.1 µM and inactive = higher.

Assays:
Experiment in all cases: NCI-60 cell line screen, 48 h
HL-60 = tested on: HL-60
ACHN = tested on: ACHN
K562 = tested on: K562
HOP-62 = tested on: HOP-62
Malme-3M = tested on: Malme-3M
NCI-H522 = tested on: NCI-H522
COLO 205 = tested on: COLO 205
SK-MEL-28 = tested on: SK-MEL-28
SK-MEL-2 = tested on: SK-MEL-2
TK-10 = tested on: TK-10
UACC-62 = tested on: UACC-62
EKVX = tested on: EKVX
NCI-H226 = tested on: NCI-H226
SNB-75 = tested on: SNB-75
MOLT-4 = tested on: MOLT-4
SF-268 = tested on: SF-268

Measured: GI50

CN(C(=O)C12C3C4C1C1C4(C(=O)C45C6C7C4C4C5C6C74C)C3C12C)C(C)(C)C (stereo not drawn)
inactive: HL-60 14.8 µM | ACHN 74.3 µM | K562 26.4 µM | HOP-62 > 100 µM | Malme-3M > 100 µM | NCI-H522 48.6 µM | COLO 205 35.4 µM | SK-MEL-28 > 100 µM | SK-MEL-2 > 100 µM | TK-10 > 100 µM | UACC-62 48.3 µM | EKVX > 100 µM | NCI-H226 72.3 µM | SNB-75 > 100 µM | MOLT-4 40.3 µM | SF-268 > 100 µM

COC(=O)C1CC2C=CC=CC(=O)C2(C)C1 (stereo not drawn)
inactive: HL-60 25.8 µM | ACHN 59.6 µM | K562 30.7 µM | HOP-62 > 100 µM | Malme-3M 49.7 µM | NCI-H522 > 10 µM | COLO 205 76.9 µM | SK-MEL-2 59.6 µM | TK-10 > 100 µM | UACC-62 39.9 µM | EKVX > 100 µM | NCI-H226 56.4 µM | MOLT-4 25.6 µM | SF-268 37.3 µM

OCC1OC(NO)C(O)C(O)C1O (stereo not drawn)
inactive: HL-60 > 100 µM | ACHN > 100 µM | K562 > 100 µM | HOP-62 > 100 µM | Malme-3M > 100 µM | NCI-H522 > 100 µM | COLO 205 > 100 µM | SK-MEL-28 > 100 µM | TK-10 > 100 µM | UACC-62 > 100 µM | NCI-H226 > 100 µM | MOLT-4 > 100 µM | SF-268 > 100 µM

C[N+](C)(C)CC(=O)N/N=C(/Cc1cc(=O)oc2cc(O)ccc12)C(=O)Nc1ccc(Cl)cc1
inactive: HL-60 > 100 µM | ACHN > 100 µM | K562 > 100 µM | HOP-62 > 100 µM | Malme-3M > 100 µM | NCI-H522 > 100 µM | COLO 205 > 100 µM | SK-MEL-28 > 100 µM | SK-MEL-2 > 100 µM | TK-10 > 100 µM | UACC-62 > 100 µM | EKVX > 100 µM | MOLT-4 > 100 µM | SF-268 > 100 µM

CC(C)N(C(=O)C12C3C4C1C1C2C3C41C(O)C(C)(C)C)C(C)C (stereo not drawn)
inactive: HL-60 > 50 µM | ACHN > 50 µM | K562 > 50 µM | HOP-62 > 50 µM | Malme-3M > 50 µM | NCI-H522 > 50 µM | COLO 205 > 50 µM | SK-MEL-28 > 50 µM | UACC-62 > 50 µM | EKVX > 50 µM | SNB-75 26.2 µM | MOLT-4 > 50 µM | SF-268 > 50 µM

Cc1cc2c(c(C#N)c1C)NC(=O)C(CC(=O)O)C2=O (stereo not drawn)
inactive: HL-60 > 100 µM | ACHN > 100 µM | K562 > 100 µM | HOP-62 > 100 µM | Malme-3M > 100 µM | COLO 205 > 100 µM | SK-MEL-28 > 100 µM | SK-MEL-2 > 100 µM | TK-10 > 100 µM | UACC-62 > 100 µM | EKVX > 100 µM | NCI-H226 > 100 µM | SNB-75 > 100 µM | MOLT-4 > 100 µM | SF-268 > 100 µM

CCCCCCCCCCCCCP(=O)(OC)OC
inactive: HL-60 15.6 µM | ACHN 18.5 µM | K562 23.2 µM | HOP-62 14.9 µM | Malme-3M 22.5 µM | NCI-H522 13.6 µM | COLO 205 20 µM | SK-MEL-28 24.3 µM | SK-MEL-2 17.5 µM | TK-10 17.8 µM | UACC-62 17.9 µM | EKVX 19.4 µM | NCI-H226 19.2 µM | SNB-75 21.2 µM | MOLT-4 19.1 µM

CN/N=C(\C)c1c(O)cc(C)oc1=O
inactive: HL-60 > 100 µM | ACHN > 100 µM | K562 > 100 µM | HOP-62 > 100 µM | Malme-3M > 100 µM | NCI-H522 > 100 µM | SK-MEL-28 > 100 µM | SK-MEL-2 > 100 µM | TK-10 > 100 µM | UACC-62 > 100 µM | EKVX > 100 µM | NCI-H226 > 100 µM | SNB-75 > 100 µM | MOLT-4 > 100 µM | SF-268 > 100 µM

CC1(C)O[C@@H](CC/C=C/CO)[C@H](CC/C=C/CO)O1
inactive: HL-60 63.8 µM | ACHN > 100 µM | K562 > 100 µM | HOP-62 > 100 µM | Malme-3M > 100 µM | NCI-H522 > 100 µM | COLO 205 > 100 µM | SK-MEL-28 > 100 µM | SK-MEL-2 > 100 µM | TK-10 > 100 µM | EKVX > 100 µM | NCI-H226 > 100 µM | SNB-75 > 100 µM | MOLT-4 > 100 µM | SF-268 > 100 µM

CC(C)NCCNC(=O)c1ccccc1Nc1c(Cl)cccc1Cl
inactive: HL-60 8.71 µM | ACHN 17.4 µM | K562 6.95 µM | HOP-62 11.6 µM | COLO 205 11.6 µM | SK-MEL-28 14.4 µM | TK-10 11.8 µM | UACC-62 15.8 µM | EKVX 13.6 µM | NCI-H226 13.5 µM | SNB-75 4.63 µM | MOLT-4 8.69 µM | SF-268 18.1 µM

O=C(O)C(C(=O)C(=O)C(C(=O)O)c1ccc(Cl)cc1)c1ccc(Cl)cc1 (stereo not drawn)
inactive: HL-60 2.18 µM | ACHN 3.64 µM | K562 2.57 µM | HOP-62 5.22 µM | Malme-3M 2.5 µM | NCI-H522 1.88 µM | COLO 205 6.44 µM | SK-MEL-28 4.54 µM | TK-10 4.57 µM | UACC-62 1.87 µM | EKVX 3.27 µM | NCI-H226 4.58 µM | SNB-75 3.32 µM | MOLT-4 1.72 µM | SF-268 2.9 µM

O=C(/C=C\c1cccc2ccccc12)c1ccc(F)cc1
inactive: HL-60 20.6 µM | ACHN 17 µM | K562 11.1 µM | HOP-62 69.8 µM | Malme-3M 17.7 µM | NCI-H522 20.5 µM | COLO 205 19 µM | SK-MEL-28 13.2 µM | TK-10 15.3 µM | UACC-62 13.9 µM | EKVX 18.8 µM | NCI-H226 35.9 µM | SNB-75 30.5 µM | MOLT-4 16 µM | SF-268 15 µM

CCOC(=O)c1cc(/C=C/C(C)=C/C(=O)OC)n(C)c1C
inactive: HL-60 23.9 µM | ACHN 45.2 µM | K562 25.8 µM | HOP-62 > 100 µM | Malme-3M > 100 µM | NCI-H522 76 µM | COLO 205 > 100 µM | TK-10 > 100 µM | UACC-62 50.6 µM | EKVX > 100 µM | NCI-H226 > 100 µM | MOLT-4 41.7 µM | SF-268 52.4 µM

O=C(O)CCN(CCCN(CCC(=O)O)CCC(=O)O)CCC(=O)O
inactive: HL-60 > 100 µM | ACHN > 100 µM | K562 > 100 µM | HOP-62 > 100 µM | Malme-3M > 100 µM | NCI-H522 > 100 µM | COLO 205 > 100 µM | SK-MEL-28 > 100 µM | SK-MEL-2 > 100 µM | TK-10 > 100 µM | UACC-62 > 100 µM | EKVX > 100 µM | SNB-75 74.8 µM | MOLT-4 > 100 µM | SF-268 > 100 µM

C[Si](C)(C)CN1C(=O)c2ccccc2C1(O)c1ccccc1 (stereo not drawn)
inactive: HL-60 40.7 µM | ACHN 56.1 µM | K562 40.1 µM | HOP-62 > 100 µM | Malme-3M > 100 µM | NCI-H522 33.5 µM | COLO 205 92.7 µM | SK-MEL-28 > 100 µM | SK-MEL-2 97.1 µM | TK-10 > 100 µM | UACC-62 62.7 µM | EKVX 91 µM | NCI-H226 > 100 µM | SNB-75 84.7 µM | MOLT-4 24.2 µM | SF-268 98.4 µM

N#C/C(N)=N/c1ccccc1
inactive: HL-60 > 100 µM | ACHN > 100 µM | K562 71 µM | HOP-62 > 100 µM | Malme-3M > 100 µM | NCI-H522 > 100 µM | COLO 205 > 100 µM | SK-MEL-28 > 100 µM | SK-MEL-2 > 100 µM | TK-10 > 100 µM | UACC-62 > 100 µM | EKVX > 100 µM | NCI-H226 > 100 µM | SNB-75 > 100 µM | MOLT-4 > 100 µM | SF-268 > 100 µM

CC(=O)C=C1Nc2ccccc2N1
inactive: HL-60 > 100 µM | ACHN > 100 µM | K562 > 100 µM | Malme-3M > 100 µM | NCI-H522 > 100 µM | COLO 205 > 100 µM | SK-MEL-28 > 100 µM | SK-MEL-2 > 100 µM | UACC-62 > 100 µM | EKVX > 100 µM | NCI-H226 > 100 µM | SNB-75 36.9 µM | MOLT-4 > 100 µM | SF-268 > 100 µM

CC(=O)c1ccc(NC(=O)COC(=O)c2cccc3c(=O)c4ccccc4[nH]c23)cc1
inactive: HL-60 > 100 µM | ACHN 27.8 µM | K562 > 100 µM | HOP-62 31.5 µM | Malme-3M 42.5 µM | NCI-H522 72.6 µM | COLO 205 33.6 µM | SK-MEL-28 40.6 µM | TK-10 21.7 µM | UACC-62 24.9 µM | EKVX > 100 µM | NCI-H226 19.4 µM | SNB-75 10.1 µM | MOLT-4 > 100 µM | SF-268 20.5 µM

CC12CC[C@H](O)C(C)(C)[C@H]1CC[C@](C)(O)C2COc1ccc2ccc(=O)oc2c1 (stereo partly drawn)
inactive: HL-60 53.1 µM | ACHN > 100 µM | K562 71 µM | HOP-62 > 100 µM | Malme-3M 73.6 µM | NCI-H522 > 100 µM | COLO 205 > 100 µM | SK-MEL-28 > 100 µM | SK-MEL-2 > 100 µM | TK-10 > 100 µM | UACC-62 64.4 µM | EKVX > 100 µM | NCI-H226 > 100 µM | SNB-75 62.2 µM | MOLT-4 80.9 µM | SF-268 > 100 µM
